Patent US8569467B2, “C-glycoside compounds, and method for preparing C-glycoside compounds” (Ecole Nationale Supérieure de Chimie de Rennes, priority 2008, dated 2013)
Values joined by “and” are separate entries in the source; they are usually repeats but may differ in a detail not shown here. Identical values can stand only once.

Legend:
[1] = Tensiometric measurements of CMC/MAC and interface tension; assay type: physicochemical; details: tensiometric measurement
Source text: Tensiometric measurements, namely the measurement of the CMC (Critical Micelle Concentration) and the MAC (Minimal Aggregation Concentration) were made on various compounds obtained according to the invention.

[2] = Effect on the cloud temperature of the reference surfactant C6E2; assay type: physicochemical
Procedure: Finally, the effects of various C-glycoside compounds obtained according to the invention on the cloud temperature of a surfactant were tested in order to evaluate the advantage thereof for the stabilisation of the formulations.
The surfactant taken as a reference is C6E2, diethylene glycol monohexylether.

[3] = C6E2 (1% weight) + product (10% weight)
[4] = C6E2 (1% weight) + product (1% weight)

SMILES | CMC*/MAC** (Critical Micelle Concentration / Minimum Aggregation Concentration) [1] [mM] | γCMC/MAC*** (interface tension at the CMC/MAC) [1] | Cloud temp [2, 3] [°C] | Cloud temp [2, 4] [°C] | Cloud temp ([2]; C6E2 (1% weight) alone, reference surfactant) [°C]
C=CCC(C)(O)C[C@@H]1OC(CO)[C@@H](O)C(O)C1O (single isomer, unassigned) [5-C(Glucosyl)-4-methylpent-1-ene-4-ol, 5-(C-Glucosyl)-4-methylpent-1-ene-4-ol] | 350 | 34 Mn · m^−1 | 44 |  | 
C=CCC(C)(O)C[C@@H]1OC(CO)[C@@H](O[C@@H]2OC(CO)[C@H](O)C(O)C2O)C(O)C1O (single isomer, unassigned) [5-C-(Lactosyl)-4-methylpent-1-ene-4-ol, 5-(C-Lactosyl)-4-methylpent-1-en-4-ol] |  |  | 39 |  | 
CCCCCC(=O)CC1O[C@H](CO)[C@H](O)[C@H](O)[C@H]1O (stereo partly shown) [1-C-(Galactosyl)-heptan-2-one] | 17.5 | 30 Mn · m^−1 |  |  | 
CCCCCC(=O)C[C@@H]1OC(CO)[C@@H](O)C(O)C1O (stereo partly shown) [1-C-(Glucosyl)-heptan-2-one, 1-(C-Glucosyl)-heptan-2-one] |  | 30 Mn · m^−1 and 28 Mn · m^−1 |  | 62 | 
CCCCCC(=O)CC1O[C@H](CO)[C@@H](O[C@@H]2O[C@H](CO)[C@H](O)[C@H](O)[C@H]2O)[C@H](O)[C@H]1O (stereo partly shown) [1-C-(Lactosyl)-heptan-2-one] | 17 | 30 Mn · m^−1 |  | 58 | 
C=CCC(C)(O)CC1O[C@H](CO)[C@H](O)[C@H](O)[C@H]1O (stereo partly shown) [5-C-(Galactosyl)-4-methylpent-1-ene-4-ol] |  |  | 42 |  | 
CCCCCCOCCOCCO [Example C6E2, diethylene glycol monohexylether, reference compound] |  |  |  |  | 34
